Experimental data from ChEMBL document CHEMBL4507323, “Data for DCP probe Ogerin” (2021).
One block for each molecule: values may come before it.

Key:
[1] = molecular target: T1, 5-hydroxytryptamine receptor 2B (Homo sapiens, UniProt P41595); experiment: GPCRScan assay: inhibition of 5-HT2B; parameters: radioligand conc. used [nm] 1.0 – 2.0, parental cells stable HEK
[2] = molecular target: 5-hydroxytryptamine receptor 1A (Homo sapiens) (UniProt P08908); conditions: Compound concentration 10.0 uM
5-hydroxytryptamine receptor 1A (Homo sapiens), sequence (P08908 whole entry): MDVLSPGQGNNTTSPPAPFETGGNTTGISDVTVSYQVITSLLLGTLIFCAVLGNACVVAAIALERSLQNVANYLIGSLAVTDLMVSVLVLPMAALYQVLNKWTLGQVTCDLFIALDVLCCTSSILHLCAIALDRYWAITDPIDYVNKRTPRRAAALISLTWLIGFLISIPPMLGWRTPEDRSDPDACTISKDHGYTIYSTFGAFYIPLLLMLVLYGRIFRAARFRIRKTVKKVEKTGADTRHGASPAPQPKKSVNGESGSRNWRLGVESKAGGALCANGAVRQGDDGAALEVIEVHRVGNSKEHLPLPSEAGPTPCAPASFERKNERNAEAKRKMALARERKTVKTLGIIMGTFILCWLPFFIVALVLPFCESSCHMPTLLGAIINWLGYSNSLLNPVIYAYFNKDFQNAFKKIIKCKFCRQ

[3] = molecular target: 5-hydroxytryptamine receptor 1B (Homo sapiens) (UniProt P28222); conditions: Compound concentration 10.0 uM
[4] = molecular target: 5-hydroxytryptamine receptor 1D (Homo sapiens) (UniProt P28221); conditions: Compound concentration 10.0 uM
[5] = molecular target: 5-hydroxytryptamine receptor 2A (Homo sapiens) (UniProt P28223); conditions: Compound concentration 10.0 uM
[6] = molecular target: T1, 5-hydroxytryptamine receptor 2B; conditions: Compound concentration 10.0 uM
[7] = molecular target: 5-hydroxytryptamine receptor 2C (Homo sapiens) (UniProt P28335); conditions: Compound concentration 10.0 uM
[8] = molecular target: 5-hydroxytryptamine receptor 3A (Homo sapiens) (UniProt P46098); conditions: Compound concentration 10.0 uM
5-hydroxytryptamine receptor 3A (Homo sapiens), sequence (P46098 whole entry): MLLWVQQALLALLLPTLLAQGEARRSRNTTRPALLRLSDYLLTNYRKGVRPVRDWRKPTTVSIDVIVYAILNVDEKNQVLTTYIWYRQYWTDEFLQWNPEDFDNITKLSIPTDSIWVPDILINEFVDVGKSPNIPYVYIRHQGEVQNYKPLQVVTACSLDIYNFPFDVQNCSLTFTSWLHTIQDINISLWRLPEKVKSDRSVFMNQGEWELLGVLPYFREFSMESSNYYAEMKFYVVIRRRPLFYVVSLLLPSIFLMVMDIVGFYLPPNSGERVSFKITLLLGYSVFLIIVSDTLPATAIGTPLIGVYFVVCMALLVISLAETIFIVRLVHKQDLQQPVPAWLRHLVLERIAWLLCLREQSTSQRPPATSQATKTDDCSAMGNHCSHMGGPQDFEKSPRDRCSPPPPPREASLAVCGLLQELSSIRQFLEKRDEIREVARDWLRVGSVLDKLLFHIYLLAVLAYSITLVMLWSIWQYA

[9] = molecular target: 5-hydroxytryptamine receptor 5A (Homo sapiens) (UniProt P47898); conditions: Compound concentration 10.0 uM
5-hydroxytryptamine receptor 5A (Homo sapiens), sequence (P47898 whole entry): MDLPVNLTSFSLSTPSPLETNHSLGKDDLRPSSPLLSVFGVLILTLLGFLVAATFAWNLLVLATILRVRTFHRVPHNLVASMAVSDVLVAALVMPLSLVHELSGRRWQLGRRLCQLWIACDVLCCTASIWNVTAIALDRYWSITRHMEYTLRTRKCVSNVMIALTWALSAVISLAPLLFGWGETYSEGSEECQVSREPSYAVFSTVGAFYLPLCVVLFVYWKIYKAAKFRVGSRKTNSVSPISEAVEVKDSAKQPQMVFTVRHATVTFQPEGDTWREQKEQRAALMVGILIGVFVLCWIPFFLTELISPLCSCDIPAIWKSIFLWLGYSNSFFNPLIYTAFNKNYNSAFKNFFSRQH

[10] = molecular target: 5-hydroxytryptamine receptor 6 (Homo sapiens) (UniProt P50406); conditions: Compound concentration 10.0 uM
[11] = molecular target: 5-hydroxytryptamine receptor 7 (Homo sapiens) (UniProt P34969); conditions: Compound concentration 10.0 uM
[12] = molecular target: D(1A) dopamine receptor (Homo sapiens) (UniProt P21728); conditions: Compound concentration 10.0 uM
[13] = molecular target: D(2) dopamine receptor (Homo sapiens) (UniProt P14416); conditions: Compound concentration 10.0 uM
[14] = molecular target: D(3) dopamine receptor (Homo sapiens) (UniProt P35462); conditions: Compound concentration 10.0 uM
[15] = molecular target: D(4) dopamine receptor (Homo sapiens) (UniProt P21917); conditions: Compound concentration 10.0 uM
D(4) dopamine receptor (Homo sapiens), sequence (P21917 whole entry): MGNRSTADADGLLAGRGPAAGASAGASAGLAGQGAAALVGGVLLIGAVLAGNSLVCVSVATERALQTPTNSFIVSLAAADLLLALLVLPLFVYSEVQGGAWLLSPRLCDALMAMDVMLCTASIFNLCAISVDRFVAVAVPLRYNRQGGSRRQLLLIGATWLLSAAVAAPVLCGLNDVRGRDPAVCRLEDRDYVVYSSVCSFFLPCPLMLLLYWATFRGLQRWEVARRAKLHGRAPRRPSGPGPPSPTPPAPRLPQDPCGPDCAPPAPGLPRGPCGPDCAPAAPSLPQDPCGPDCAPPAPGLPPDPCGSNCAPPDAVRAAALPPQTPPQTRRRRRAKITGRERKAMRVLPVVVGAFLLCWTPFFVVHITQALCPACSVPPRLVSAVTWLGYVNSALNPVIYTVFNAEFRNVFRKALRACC

[16] = molecular target: D(1B) dopamine receptor (Homo sapiens) (UniProt P21918); conditions: Compound concentration 10.0 uM
[17] = molecular target: Sodium-dependent serotonin transporter (Homo sapiens) (UniProt P31645); conditions: Compound concentration 10.0 uM
Sodium-dependent serotonin transporter (Homo sapiens), sequence (P31645 whole entry, looked up): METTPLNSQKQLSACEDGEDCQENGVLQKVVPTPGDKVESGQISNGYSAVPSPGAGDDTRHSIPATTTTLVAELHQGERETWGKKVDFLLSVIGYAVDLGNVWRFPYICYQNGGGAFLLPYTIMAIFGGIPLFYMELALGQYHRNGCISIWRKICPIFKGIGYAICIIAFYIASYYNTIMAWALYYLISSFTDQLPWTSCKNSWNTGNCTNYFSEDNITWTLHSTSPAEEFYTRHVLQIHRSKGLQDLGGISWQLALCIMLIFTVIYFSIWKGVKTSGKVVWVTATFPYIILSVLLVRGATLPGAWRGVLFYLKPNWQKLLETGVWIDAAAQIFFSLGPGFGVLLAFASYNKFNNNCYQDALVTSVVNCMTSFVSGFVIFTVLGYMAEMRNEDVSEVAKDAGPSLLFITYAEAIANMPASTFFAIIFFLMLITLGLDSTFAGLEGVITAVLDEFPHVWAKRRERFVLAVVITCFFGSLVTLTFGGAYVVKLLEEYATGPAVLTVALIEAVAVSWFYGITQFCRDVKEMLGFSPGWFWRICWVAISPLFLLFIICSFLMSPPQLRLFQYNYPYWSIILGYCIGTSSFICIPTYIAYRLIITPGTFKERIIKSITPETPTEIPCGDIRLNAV

[18] = molecular target: Sodium-dependent noradrenaline transporter (Homo sapiens) (UniProt P23975); conditions: Compound concentration 10.0 uM
Sodium-dependent noradrenaline transporter (Homo sapiens), sequence (P23975 whole entry): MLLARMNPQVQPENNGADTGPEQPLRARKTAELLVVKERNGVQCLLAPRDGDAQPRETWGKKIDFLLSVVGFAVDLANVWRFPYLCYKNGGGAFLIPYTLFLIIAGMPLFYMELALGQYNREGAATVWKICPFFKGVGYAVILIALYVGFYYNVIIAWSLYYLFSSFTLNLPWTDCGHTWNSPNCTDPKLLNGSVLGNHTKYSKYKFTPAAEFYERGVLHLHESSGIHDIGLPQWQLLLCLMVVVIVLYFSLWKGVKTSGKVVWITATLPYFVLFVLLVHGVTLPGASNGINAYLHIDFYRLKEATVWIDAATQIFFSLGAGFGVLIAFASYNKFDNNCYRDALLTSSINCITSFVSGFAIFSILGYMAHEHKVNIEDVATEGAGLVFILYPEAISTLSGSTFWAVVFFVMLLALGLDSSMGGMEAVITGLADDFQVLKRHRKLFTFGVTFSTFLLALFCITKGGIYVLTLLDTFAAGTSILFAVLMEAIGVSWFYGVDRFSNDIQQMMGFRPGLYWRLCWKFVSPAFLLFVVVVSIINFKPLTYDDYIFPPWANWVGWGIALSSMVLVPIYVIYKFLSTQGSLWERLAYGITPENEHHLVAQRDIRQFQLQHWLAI

[19] = molecular target: Sodium-dependent dopamine transporter (Homo sapiens) (UniProt Q01959); conditions: Compound concentration 10.0 uM
[20] = molecular target: Mu-type opioid receptor (Homo sapiens) (UniProt P35372); conditions: Compound concentration 10.0 uM
Mu-type opioid receptor (Homo sapiens), sequence (P35372 whole entry): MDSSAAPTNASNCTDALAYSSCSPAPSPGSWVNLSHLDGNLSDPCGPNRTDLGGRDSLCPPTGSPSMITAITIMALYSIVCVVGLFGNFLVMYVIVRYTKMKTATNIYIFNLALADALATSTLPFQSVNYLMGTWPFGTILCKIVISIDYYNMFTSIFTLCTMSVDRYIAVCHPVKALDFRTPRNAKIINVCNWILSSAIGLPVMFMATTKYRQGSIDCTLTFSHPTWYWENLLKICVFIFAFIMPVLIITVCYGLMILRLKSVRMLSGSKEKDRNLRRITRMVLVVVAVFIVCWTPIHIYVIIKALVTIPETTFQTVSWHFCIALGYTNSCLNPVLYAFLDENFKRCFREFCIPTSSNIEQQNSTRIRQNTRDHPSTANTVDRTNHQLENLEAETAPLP

[21] = molecular target: Delta-type opioid receptor (Homo sapiens) (UniProt P41143); conditions: Compound concentration 10.0 uM
[22] = molecular target: Kappa-type opioid receptor (Homo sapiens) (UniProt P41145); conditions: Compound concentration 10.0 uM
Kappa-type opioid receptor (Homo sapiens), sequence (P41145 whole entry): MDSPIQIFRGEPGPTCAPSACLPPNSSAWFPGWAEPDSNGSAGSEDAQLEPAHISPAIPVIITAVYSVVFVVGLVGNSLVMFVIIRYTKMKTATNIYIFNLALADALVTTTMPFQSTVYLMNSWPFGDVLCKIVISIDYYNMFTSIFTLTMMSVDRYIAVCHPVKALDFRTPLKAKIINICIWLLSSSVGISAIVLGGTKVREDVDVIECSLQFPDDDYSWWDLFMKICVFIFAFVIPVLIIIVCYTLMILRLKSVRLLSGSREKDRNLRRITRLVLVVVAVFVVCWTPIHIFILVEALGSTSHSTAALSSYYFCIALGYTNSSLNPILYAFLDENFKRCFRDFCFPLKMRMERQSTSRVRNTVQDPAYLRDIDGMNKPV

[23] = molecular target: T2, GABA-A receptor; anion channel (Rattus norvegicus) (UniProt O09028+P15431+P18506+P18508+P19969+P20236+P23574+P23576+P28471+P28473+P30191+P62813+P63079+P63138+Q91ZM7+Q9ES14); conditions: Compound concentration 10.0 uM
[24] = molecular target: Histamine H1 receptor (Homo sapiens) (UniProt P35367); conditions: Compound concentration 10.0 uM
[25] = molecular target: Histamine H3 receptor (Homo sapiens) (UniProt Q9Y5N1); conditions: Compound concentration 10.0 uM
[26] = molecular target: Histamine H4 receptor (Homo sapiens) (UniProt Q9H3N8); conditions: Compound concentration 10.0 uM
[27] = molecular target: Alpha-1A adrenergic receptor (Homo sapiens) (UniProt P35348); conditions: Compound concentration 10.0 uM
Alpha-1A adrenergic receptor (Homo sapiens), sequence (P35348 whole entry): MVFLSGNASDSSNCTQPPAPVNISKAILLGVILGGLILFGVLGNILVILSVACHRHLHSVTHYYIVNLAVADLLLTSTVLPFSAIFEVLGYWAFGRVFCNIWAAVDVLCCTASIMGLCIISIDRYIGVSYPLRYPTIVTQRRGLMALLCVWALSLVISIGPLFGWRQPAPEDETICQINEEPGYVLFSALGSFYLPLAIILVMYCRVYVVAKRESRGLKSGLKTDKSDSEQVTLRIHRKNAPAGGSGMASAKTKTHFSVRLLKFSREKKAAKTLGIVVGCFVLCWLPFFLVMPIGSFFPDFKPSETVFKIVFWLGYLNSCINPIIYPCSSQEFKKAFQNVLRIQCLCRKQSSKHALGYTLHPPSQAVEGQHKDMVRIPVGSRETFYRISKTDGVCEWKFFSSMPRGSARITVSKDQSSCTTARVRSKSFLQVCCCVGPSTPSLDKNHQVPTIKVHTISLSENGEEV

[28] = molecular target: Alpha-2A adrenergic receptor (Homo sapiens) (UniProt P08913); conditions: Compound concentration 10.0 uM
[29] = molecular target: Alpha-2B adrenergic receptor (Homo sapiens) (UniProt P18089); conditions: Compound concentration 10.0 uM
[30] = molecular target: Alpha-2C adrenergic receptor (Homo sapiens) (UniProt P18825); conditions: Compound concentration 10.0 uM
[31] = molecular target: Beta-1 adrenergic receptor (Homo sapiens) (UniProt P08588); conditions: Compound concentration 10.0 uM
[32] = molecular target: Beta-2 adrenergic receptor (Homo sapiens) (UniProt P07550); conditions: Compound concentration 10.0 uM
[33] = molecular target: Muscarinic acetylcholine receptor M1 (Homo sapiens) (UniProt P11229); conditions: Compound concentration 10.0 uM
[34] = molecular target: Muscarinic acetylcholine receptor M2 (Homo sapiens) (UniProt P08172); conditions: Compound concentration 10.0 uM
[35] = molecular target: Muscarinic acetylcholine receptor M3 (Homo sapiens) (UniProt P20309); conditions: Compound concentration 10.0 uM
[36] = molecular target: Muscarinic acetylcholine receptor M4 (Homo sapiens) (UniProt P08173); conditions: Compound concentration 10.0 uM
[37] = molecular target: Beta-3 adrenergic receptor (Homo sapiens) (UniProt P13945); conditions: Compound concentration 10.0 uM
[38] = molecular target: T2, GABA-A receptor; anion channel (Rattus norvegicus); conditions: Compound concentration 10.0 uM; remark: listed apart in the source
[39] = species on record: Rattus norvegicus; conditions: Compound concentration 10.0 uM
[40] = molecular target: Alpha-1D adrenergic receptor (Homo sapiens) (UniProt P25100); conditions: Compound concentration 10.0 uM
[41] = molecular target: Sigma non-opioid intracellular receptor 1 (Homo sapiens) (UniProt Q99720); conditions: Compound concentration 10.0 uM
Sigma non-opioid intracellular receptor 1 (Homo sapiens), sequence (Q99720 whole entry): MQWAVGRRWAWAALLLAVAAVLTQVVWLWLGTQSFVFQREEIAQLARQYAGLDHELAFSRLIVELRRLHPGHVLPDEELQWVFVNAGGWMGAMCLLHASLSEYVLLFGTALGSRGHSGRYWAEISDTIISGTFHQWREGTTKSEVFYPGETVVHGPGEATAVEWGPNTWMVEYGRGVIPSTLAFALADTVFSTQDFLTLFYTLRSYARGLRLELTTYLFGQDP

[42] = FLIPR-TETRA assay
[43] = molecular target: 5-hydroxytryptamine receptor 1A (Homo sapiens, UniProt P08908); experiment: GPCRScan assay: inhibition of 5-HT1A; parameters: radioligand conc. used [nm] 0.5 – 1.0, parental cells stable CHO
5-hydroxytryptamine receptor 1A, sequence (P08908 whole entry): as the sequence (P08908 whole entry) above

[44] = molecular target: Histamine H2 receptor (Homo sapiens) (UniProt P25021); conditions: Compound concentration 10.0 uM
[45] = molecular target: Alpha-1B adrenergic receptor (Homo sapiens) (UniProt P35368); conditions: Compound concentration 10.0 uM
[46] = molecular target: Muscarinic acetylcholine receptor M5 (Homo sapiens) (UniProt P08912); conditions: Compound concentration 10.0 uM
[47] = molecular target: Sigma intracellular receptor 2 (Homo sapiens) (UniProt Q5BJF2); conditions: Compound concentration 10.0 uM

T1 sequence (P41595 whole entry): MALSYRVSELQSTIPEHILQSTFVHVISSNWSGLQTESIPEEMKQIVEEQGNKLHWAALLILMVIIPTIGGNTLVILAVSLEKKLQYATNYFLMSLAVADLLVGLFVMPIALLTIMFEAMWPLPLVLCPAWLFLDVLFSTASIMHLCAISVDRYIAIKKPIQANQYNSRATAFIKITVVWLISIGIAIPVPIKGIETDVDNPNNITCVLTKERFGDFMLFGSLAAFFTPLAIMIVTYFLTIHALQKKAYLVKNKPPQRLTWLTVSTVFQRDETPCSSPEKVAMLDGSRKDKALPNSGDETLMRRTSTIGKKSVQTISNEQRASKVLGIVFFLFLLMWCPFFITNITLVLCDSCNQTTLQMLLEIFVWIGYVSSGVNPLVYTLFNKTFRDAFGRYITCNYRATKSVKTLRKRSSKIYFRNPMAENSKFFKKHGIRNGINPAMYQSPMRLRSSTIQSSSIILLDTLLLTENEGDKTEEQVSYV

- Ki ([1]; read-out: Ki): 496 nM
- Ki ([1]; read-out: pKi (converted)): 490 nM
- inhibition [2]: 9.7%
- inhibition [3]: 7.41%
- inhibition [4]: 11.2%
- inhibition [5]: 2.78%
- inhibition [6]: 81%
- inhibition [7]: 9.32%
- inhibition [8]: 2.24%
- inhibition [9]: 10.6%
- inhibition [10]: 19.4%
- inhibition [11]: 43.9%
- inhibition [12]: 33.7%
- inhibition [13]: 10%
- inhibition [14]: 18.9%
- inhibition [15]: 4.35%
- inhibition [16]: 43.9%
- inhibition [17]: 4.96%
- inhibition [18]: 32.1%
- inhibition [19]: 18.1%
- inhibition [20]: 11.9%
- inhibition [21]: 12.5%
- inhibition [22]: 30.2%
- inhibition [23]: 19.7%
- inhibition [24]: -4.07%
- inhibition [25]: -1.93%
- inhibition [26]: 8.3%
- inhibition [27]: 25.5%
- inhibition [28]: 24.4%
- inhibition [29]: 43.9%
- inhibition [30]: 0.87%
- inhibition [31]: 25.5%
- inhibition [32]: 20.7%
- inhibition [33]: 23.6%
- inhibition [34]: 23.2%
- inhibition [35]: 36%
- inhibition [36]: -9.42%
- inhibition [37]: 14.8%
- inhibition [38]: 32.9%
- inhibition [39]: 12.9%
- inhibition [40]: 4.63%
- inhibition [41]: -0.41%
- pEC50 [42]: 6.83
Structure (SMILES): Nc1nc(NCc2ccccc2)nc(-c2ccccc2CO)n1 [Ogerin]

- Ki ([43]; read-out: Ki): 850 nM
- Ki ([43]; read-out: pKi (converted)): 832 nM
- inhibition [2]: 65.5%
- inhibition [3]: -2.86%
- inhibition [4]: 13.7%
- inhibition [5]: 1.28%
- inhibition [6]: 41.8%
- inhibition [7]: 3.72%
- inhibition [8]: 37.2%
- inhibition [9]: 0.66%
- inhibition [10]: 26.7%
- inhibition [11]: 15.9%
- inhibition [12]: 3.99%
- inhibition [13]: -7.4%
- inhibition [14]: 8.38%
- inhibition [15]: 24.4%
- inhibition [17]: 9.44%
- inhibition [18]: 43.6%
- inhibition [19]: -9.76%
- inhibition [20]: 8.68%
- inhibition [21]: 9.2%
- inhibition [22]: 10.8%
- inhibition [24]: -5.64%
- inhibition [44]: 4.01%
- inhibition [25]: 6.14%
- inhibition [26]: -9.05%
- inhibition [27]: 5.91%
- inhibition [45]: 5.01%
- inhibition [28]: 7.24%
- inhibition [29]: 21.8%
- inhibition [30]: 1.4%
- inhibition [31]: -3.07%
- inhibition [32]: 18%
- inhibition [33]: 35.2%
- inhibition [34]: 10.8%
- inhibition [35]: 18.3%
- inhibition [36]: 21.6%
- inhibition [46]: 12.8%
- inhibition [37]: 17.8%
- inhibition [38]: 18.3%
- inhibition [39]: 8.6%
- inhibition [40]: -8.75%
- inhibition [47]: 12.3%
- inhibition [41]: 0.95%
Structure (SMILES): Nc1nc(NCc2ccccc2)nc(-c2cccc(CO)c2)n1 [ZINC32547799]
